Experimental findings from US20140094413A1, “HEPATOCYTE GROWTH FACTOR (HGF) MIMICS AS THERAPEUTIC AGENTS” (WASHINGTON STATE UNIVERSITY, priority 2012, published 2014) are described below.

Several values for one entry are separate records, joined by “and”; a condition that tells them apart may be missing. Equal values may be shown once. Entries after “also recorded” stand apart in the source; their conditions may differ. Where a SMILES comes first, the peptide text is derived from it. [ ]: non-standard residue; d: D form. The star is where a group is joined. Nle = CCCC[C@H](N)C(=O)O; Hexanoyl = CCCCCC(=O)*; Ahx = NCCCCCC(=O)O

For one experiment, the system named is hippocampal neurons. In words: Whole-cell recordings of mEPSCs in dissociated hippocampal neurons. Also noted: unit not given beside the values. It is filed as cell-based, rat. The conditions noted are these: 5 days.
Experiment [1] relates to hippocampal neurons transfected with shMet. In words: Spinogenesis after c-Met knock-down with shRNA. The following applies: HGF 10 ng/ml, 48 hours. It is filed as cell-based, rat. The source says: Neurons were transfected with mRFP-β-actin on day in vitro 6 (DIV6) using LipofectAMINE™ 2000 (Invitrogen) according to the manufacturer's protocol. This protocol yielded the desired 3-5% transfection efficiency thus enabling the visualization of individual neurons. Higher efficiencies obscured the dendritic arbor of individual neurons. Expression of fluorescently tagged actin allowed clear visualization of dendritic spines, as dendritic spines are enriched in actin. On DIV7 the cells were treated with vehicle (H20) or peptides (as described in the text) added to media. On DIV12 the neurons were fixed (4% paraformaldehyde, 3% sucrose, 60 mM PIPES, 25 mM HEPES, 5 mM EGTA, 1 mM MgCl2, pH 7.4) for 20 min at room temperature and mounted. Slides were dried for at least 20 hours at 4° C. and fluorescent images were obtained with Slidebook 4.2 Digital Microscopy Software driving an Olympus IX81 inverted confocal microscope with a 60× oil immersion lens, NA 1.4 and resolution 0.280 μm Dendritic spine density was measured on primary and secondary dendrites at a distance of at least 150 μm from the soma. Five 50 μm long segments of dendrite from at least 10 neurons per data point were analyzed for each data point reported. Each experiment was repeated at least three times using independent culture preparations. Dendrite length was determined using the National Institutes of Health's Image J 1.41o program (NIH, Bethesda, Md.) and the neurite tracing program Neuron J (Meijering, Jacob et al. 2004) Spines were manually counted.
A target sequence for c-Met was designed using RNAi central design program (see the website located at cancan.cshl.edu/). […]. The shRNA was transfected into cells using the lipofectamine method described above. Verification of receptor knockdown was done by creating a c-Met-6-Myc tagged gene product using the Gateway cloning system (Invitrogen). The Met protein coding sequence was cloned from rat whole brain cDNA using primers obtained from Integrated DNA Technologies, Inc. The amplified product was gel purified and a band corresponding to […] band excised and cloned into a PCAGGS-6-Myc destination vector (Gateway).
To irrefutably confirm that the AngIV analogues act via the HGF/c-met system an shRNA for c-Met was employed to knock-down the receptor. Dissociated hippocampal neurons were transfected with mRFP-β-actin and shMet RNA and receptor knock-down was allowed to take place for 48 hours prior to stimulating with 0.5 μg (per well) HGF (10 ng/ml), Dihexa or Nle1-AngIV (both at 10^−12M). Longer exposure appeared to be detrimental or toxic to the neurons. Effective c-Met receptor knock-down was verified by transfecting human embryonic kidney (HEK) cells with (0.1 μg) 6-Myc-tagged c-Met, (0.1 μg) shMet or mRFP-β-actin alone. Successful knockdown was confirmed by immunoblotting for Myc tagged c-met using an anti-Myc antibody (FIG. 19).

A further experiment deals with c-Met receptor. In words: c-Met phosphorylation in acute adult rat hippocampal slices. It is filed as cell-based. The conditions noted are these: 30 minutes. The source says: Adult Sprague-Dawley rats (250 g+) obtained from Harlan Laboratories (Ca, USA) were anesthetized with isofluorane (Vet One™, MWI, Meridian, Id., USA) and decapitated. The brain was rapidly removed and placed into ice-chilled artificial cerebrospinal fluid (aCSF) for approximately 30 s. Both hemispheres were separated by a mid-saggital cut and both hippocampi removed. Slices were sectioned cross- and length-wise (400 μm) to ensure penetrability of the drug, using a McIlwain tissue chopper (Brinkmann, Gomshall, UK) and transferred to a gassed (95% O2/5% CO2) incubation chamber containing aCSF for 90 minutes at room temperature. Slices were transferred to fresh tubes, aCSF was removed by careful suctioning and replaced with aCSF containing vehicle (aCSF+aCSF), 100 ng/ml with carrier free adult recombinant Hepatocyte Growth Factor (HGF) (R and D Systems, MN, USA) in aCSF, 10^−10 M Hinge (Harding lab), […], 10^−10 M Dihexa (Harding lab) in aCSF, 10^−12 M Dihexa in aCSF or 50 ng/ml HGF+10^−12 M Dihexa in aCSF for 30 minutes at 37° C. with gentle rocking. aCSF was removed and the slices were lysed using RIPA buffer (Upstate/Milipore, Billerica, Mass.) and inhibitor Cocktails I and II (Sigma, St. Louis, Mo.), sonicated on ice and clarified by centrifugation for 30 minutes, 13,000 rpm at 4° C. The supernatant was removed from the pellet and stored at −80° C. or processed immediately for gel electrophoresis.
Protein concentration of the samples was quantified using the BCA method (Pierce, Rockford, Ill.) following the manufacturers protocol. Samples were added to SDS-PAGE buffer and boiled for 10 min. before loading onto a 4-12% Bis-Tris pre-cast gel (Invitrogen, Carlsbad, Calif.) for electrophoresis. Proteins were transferred onto PVDF membranes (Bio Rad, Hercules, Calif.) and blocked with AquaBlock™ (New England Biolabs, Ipswich, Mass.) for 1 hour at room temperature (RT). Primary antibody incubation was done in AquaBlock™ with rabbit anti-Met and […] phospho-Met (Tyr1234/1235) (1:1000, Cell Signaling Technology, Danvers, Mass.) overnight at 4° C. Alternating washes were done with PBS and PBST. Secondary antibody (IRDye) (Rockland, Gilbertsville, Pa.) incubations were done in AquaBlock™ for one hour at RT. Blots were imaged using LI-COR Odyssey Infrared Imaging System (LI-COR Biosciences, Lincoln, Nebr.).

Setting [2] is: neurons transfected with mRFP-β-actin alone, Dihexa or Nle1-AngIV 10^−12M.
Where [3] appears, read: neurons transfected with mRFP-β-actin and shMet, Dihexa or Nle1-AngIV 10^−12 M.
The mark [4] stands for this setting: saturating doses: HGF 100 ng/ml, Dihexa 10^−10 M.
Where [5] appears, read: sub-threshold doses: HGF 50 ng/ml, Dihexa 10^−12 M.

With `CCCCCC(=O)N[C@@H](Cc1ccc(O)cc1)C(=O)N[C@H](C(=O)NCCCCCC(N)=O)[C@@H](C)CC` [Dihexa, N-hexanoic-Tyr-Ile-(6)-aminohexanoic amide] (Hexanoyl-Tyr-Ile-[Ahx]-NH2), the mEPSC mean frequency in the experiment on hippocampal neurons (10^−12 M (each)) is 6.75±0.99 and 8.25±0.56. In addition, the figures for the “Mean spine numbers per 50 μm dendrite length” value in experiment [1] (setting [2]) and in experiment [1] (setting [3]) were 21.8 spines per 50 μm dendrite leng and 12.0 spines per 50 μm dendrite leng, respectively. The “c-Met phosphorylation vs vehicle (aCSF)” value is “both increased c-Met phosphorylation; also recorded: effectively augment c-Met phosphorylation” in the experiment with c-Met receptor (setting [4]) and “not statistically different from control treated slices; also recorded: did not significantly increase c-Met receptor phosphorylation” with c-Met receptor (setting [5]).

`CCCC[C@H](N)C(=O)N[C@@H](Cc1ccc(O)cc1)C(=O)N[C@H](C(=O)N[C@@H](Cc1c[nH]cn1)C(=O)N1CCC[C@H]1C(=O)N[C@@H](Cc1ccccc1)C(=O)O)[C@@H](C)CC` [Nle1-AngIV, reference compound] (H-[Nle]YIHPF-OH; N-terminus and C-terminus assumed): the “Mean spine numbers per 50 μm dendrite length” value was 20.0 spines per 50 μm dendrite leng in experiment [1] (setting [2]) and 12.1 spines per 50 μm dendrite leng in experiment [1] (setting [3]).

Regarding “HGF: Hepatocyte growth factor, recombinant, purchased from R&D Systems”, the mEPSC mean frequency with hippocampal neurons (HGF 10 ng/ml) was 7.09±0.53 and 9.66±0.20. Moreover, the entries for the “Mean spine numbers per 50 μm dendrite length” value in experiment [1] (setting [2]) and in experiment [1] (setting [3]) were 20.6 spines per 50 μm dendrite leng and 12.4 spines per 50 μm dendrite leng, respectively. Moreover, the “c-Met phosphorylation vs vehicle (aCSF)” value in the experiment on c-Met receptor (setting [4]) is “both increased c-Met phosphorylation; also recorded: effectively augment c-Met phosphorylation”; in the experiment with c-Met receptor (setting [5]), “not statistically different from control treated slices; also recorded: did not significantly increase c-Met receptor phosphorylation”.
